Patent US11440898B2, “Isoquinoline compounds, methods for their preparation, and therapeutic uses thereof in conditions associated with the alteration of the activity of beta galactosidase” (Minoryx Therapeutics S.L., priority 2016, dated 2022)

Biological target: T1, mutated beta-galactosidase (p.R60H canine GLB1) in GM11473 fibroblasts (Canis lupus familiaris, UniProt Q9TRY9, R60H)
T1 construct: host or cells: GM11473 canine GM1 gangliosidosis fibroblasts
T1 sequence (Q9TRY9 30-668 R60H): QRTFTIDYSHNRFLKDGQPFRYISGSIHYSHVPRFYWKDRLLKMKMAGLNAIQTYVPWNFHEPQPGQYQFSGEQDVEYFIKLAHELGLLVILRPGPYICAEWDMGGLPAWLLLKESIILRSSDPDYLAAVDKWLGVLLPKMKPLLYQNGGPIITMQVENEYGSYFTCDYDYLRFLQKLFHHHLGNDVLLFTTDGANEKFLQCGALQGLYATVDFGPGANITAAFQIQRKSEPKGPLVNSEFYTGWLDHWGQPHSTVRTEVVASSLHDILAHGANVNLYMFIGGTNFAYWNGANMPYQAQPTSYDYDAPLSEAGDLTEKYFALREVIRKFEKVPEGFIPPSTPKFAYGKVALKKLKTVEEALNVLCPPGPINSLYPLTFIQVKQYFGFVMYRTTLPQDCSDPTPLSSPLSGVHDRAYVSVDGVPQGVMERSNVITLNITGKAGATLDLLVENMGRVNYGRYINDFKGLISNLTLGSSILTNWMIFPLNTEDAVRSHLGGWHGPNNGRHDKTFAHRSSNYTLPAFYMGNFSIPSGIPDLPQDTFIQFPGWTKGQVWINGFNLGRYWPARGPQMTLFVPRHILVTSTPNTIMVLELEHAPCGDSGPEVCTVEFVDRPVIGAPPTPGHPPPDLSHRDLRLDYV
Test: Enhancement of β-galactosidase activity measured in GM1 fibroblasts (GM11473), 4-MU-β-D-galactopyranoside substrate
Assay type: cell-based
Design: key: Increase in comparison with non-treated of >2.5 fold is shown as A; Increase in comparison with non-treated of >1.7-2.5 fold is shown as B; Increase in comparison with non-treated of 1.2-1.7 fold is shown as C; D means that no increase compared with non-treated cells was detected in this method
Conditions: increase in β-galactosidase enzyme activity vs non-treated cells, concentrations between 6 and 50 μM, 4 days incubation
Method: The capacity of the Compounds of the Disclosure to enhance mutated beta-galactosidase activity levels in GM1 fibroblasts was assayed as follows.
Fibroblasts homozygous for a GM1 gangliosidosis missense mutation (GM11473) (canine fibroblasts homozygous for the GM1 gangliosidosis missense mutation p.R60H equivalent to human p.R59H mutation) were purchased from Coriell Institute for Medical Research (Camden, N.J., USA).
Fibroblasts were seeded at 4×10^4 cells per well in 12-well cell culture plates in Dulbecco's Modified Eagle's Media (DMEM) supplemented with 10% of fetal bovine serum (FBS), 1% penicillin/streptomycin (P/S) (Thermo Fisher Scientific, Waltham, Mass., USA) and incubated at 37° C., 5% CO2 overnight for cell attachment. Subsequently, cells were incubated in the absence or presence of the compounds at the desired concentration for 4 days. After incubation, cells were washed twice with phosphate-buffered saline (“PBS”) and detached using Trypsin-EDTA solution (Sigma Aldrich, St. Louis, Mo., USA) to prepare cell pellets. The pellets were stored at −80° C. until activity assays were performed.
β-Galactosidase activity in cell lysates was measured by using 4-Methylumbelliferyl-β-D-galactopyranoside substrate (Sigma Aldrich, St. Louis, Mo., USA). Briefly, lysates were resuspended in 200 μL of 0.9% NaCl containing 0.01% triton X-100 lysis buffer to promote membrane disruption. The cell suspension was sonicated and centrifuged to remove insoluble materials. Then, lysates were mixed with 4-MU-β-D-galactopyranoside in 100 mM citrate buffer (pH=4) and 100 mM NaCl for 60 min at 37° C. The reaction was terminated by adding 100 mM glycine-NaOH buffer (pH=10.7). The liberated 4-MU was measured on a GloMax Discover plate reader (Promega, Madison, Wis., USA) with excitation at 340 nm and emission at 460 nm. Protein quantification was determined using Pierce BCA Protein Assay Kit (Thermo Fisher Scientific, Waltham, Mass., USA). Measurements were interpolated in a 4-MU standard curve and normalized by protein quantity. Enzyme activities were expressed in treated cells as X-fold increase in comparison with non-treated cells (X=1 represents no enhancement).
The capacity of the Compounds of the Disclosure to produce an increase in β-galactosidase enzyme activity in canine GM1 fibroblasts bearing p.R60H canine GLB1 mutation at concentrations between 6 and 50 μM is denoted as follows: • Increase in comparison with non-treated of >2.5 fold is shown as A. • Increase in comparison with non-treated of >1.7-2.5 fold is shown as B. • Increase in comparison with non-treated of 1.2-1.7 fold is shown as C. • D means that no increase compared with non-treated cells was detected in this method. • ND means “not determined.”

| Structure (SMILES) | Activity in GM11473 fibroblasts |
| --- | --- |
| O=C(NC1CCc2ccccc2C1)c1ccc(Nc2nccc3ccc(Cl)cc23)nc1 (stereo not shown) [Example 60, 6-((7-Chloroisoquinolin-1-yl)amino)-N-(1,2,3,4-tetrahydronaphthalen-2-yl)nicotinamide] | C (Increase in comparison with non-treated of 1.2-1.7 fold is shown as C) |
| O=C(NCc1ccc2c(c1)OCO2)c1ccc(Nc2nccc3ccc(Cl)cc23)nc1 [Example 62, N-(benzo[d][1,3]dioxol-5-ylmethyl)-6-((7-chloroisoquinolin-1-yl)amino)nicotinamide] | D |
| O=C(NCc1ccc2c(c1)CCCO2)c1ccc(Nc2nccc3ccc(Cl)cc23)nc1 [Example 63, 6-((7-Chloroisoquinolin-1-yl)amino)-N-(chroman-6-ylmethyl)nicotinamide] | C (Increase in comparison with non-treated of 1.2-1.7 fold is shown as C) |
| O=S(=O)(NCC(c1cccnc1)N1CCCC1)c1cccc(Nc2nccc3ccc(Cl)cc23)c1 (stereo not shown) [Example 65, 3-((7-Chloroisoquinolin-1-yl)amino)-N-(2-(pyridin-3-yl)-2-(pyrrolidin-1-yl)ethyl)benzenesulfonamide] | C (Increase in comparison with non-treated of 1.2-1.7 fold is shown as C) |
| O=S(=O)(NCC(c1ccccn1)N1CCOCC1)c1cccc(Nc2nccc3ccc(Cl)cc23)c1 (stereo not shown) [Example 66, 3-((7-Chloroisoquinolin-1-yl)amino)-N-(2-morpholino-2-(pyridin-2-yl)ethyl)benzenesulfonamide] | C (Increase in comparison with non-treated of 1.2-1.7 fold is shown as C) |
| Cn1nnc2c(NS(=O)(=O)c3cccc(Nc4nccc5ccc(Cl)cc45)c3)cccc21 [Example 67, 3-((7-Chloroisoquinolin-1-yl)amino)-N-(1-methyl-1H-benzo[d][1,2,3]triazol-4-yl)benzenesulfonamide] | C (Increase in comparison with non-treated of 1.2-1.7 fold is shown as C) |
| O=S(=O)(NCc1ccc2c(c1)OCCO2)c1cccc(Nc2nccc3ccc(Cl)cc23)c1 [Example 69, 3-((7-Chloroisoquinolin-1-yl)amino)-N-((2,3-dihydrobenzo[b][1,4]dioxin-6-yl)methyl)benzenesulfonamide] | D |
| O=S(=O)(NC1CCc2ccccc2C1)c1cccc(Nc2nccc3ccc(Cl)cc23)c1 (stereo not shown) [Example 70, 3-((7-Chloroisoquinolin-1-yl)amino)-N-(1,2,3,4-tetrahydronaphthalen-2-yl)benzenesulfonamide] | C (Increase in comparison with non-treated of 1.2-1.7 fold is shown as C) |
| Cn1nnc2cc(CNS(=O)(=O)c3cccc(Nc4nccc5ccc(Cl)cc45)c3)ccc21 [Example 71, 3-((7-Chloroisoquinolin-1-yl)amino)-N-((1-methyl-1H-benzo[d][1,2,3]triazol-5-yl)methyl)benzenesulfonamide] | C (Increase in comparison with non-treated of 1.2-1.7 fold is shown as C) |
| O=S(=O)(NCC(c1ccccn1)N1CCOCC1)c1ccc(Nc2nccc3ccc(Cl)cc23)cc1 (stereo not shown) [Example 72, 4-((7-Chloroisoquinolin-1-yl)amino)-N-(2-morpholino-2-(pyridin-2-yl)ethyl)benzenesulfonamide] | D |
| Cn1nnc2c(NS(=O)(=O)c3ccc(Nc4nccc5ccc(Cl)cc45)cc3)cccc21 [Example 73, 4-((7-Chloroisoquinolin-1-yl)amino)-N-(1-methyl-1H-benzo[d][1,2,3]triazol-4-yl)benzenesulfonamide] | D |
| O=S(=O)(NCc1ccc2nsnc2c1)c1cccc(Nc2nccc3ccc(Cl)cc23)c1 [Example 74, N-(benzo[c][1,2,5]thiadiazol-5-ylmethyl)-3-((7-chloroisoquinolin-1-yl)amino)benzenesulfonamide] | D |
| O=S(=O)(NCc1ccc2c(c1)OCCO2)c1ccc(Nc2nccc3ccc(Cl)cc23)cc1 [Example 75, 4-((7-chloroisoquinolin-1-yl)amino)-N-((2,3-dihydrobenzo[b][1,4]dioxin-6-yl)methyl)benzenesulfonamide] | B (Increase in comparison with non-treated of >1.7-2.5 fold is shown as B) |
| O=S(=O)(NCc1ccc2nsnc2c1)c1ccc(Nc2nccc3ccc(Cl)cc23)cc1 [Example 76, N-(benzo[c][1,2,5]thiadiazol-5-ylmethyl)-4-((7-chloroisoquinolin-1-yl)amino)benzenesulfonamide] | C (Increase in comparison with non-treated of 1.2-1.7 fold is shown as C) |
| O=S(=O)(NC1CCc2ccccc2C1)c1ccc(Nc2nccc3ccc(Cl)cc23)cc1 (stereo not shown) [Example 77, 4-((7-Chloroisoquinolin-1-yl)amino)-N-(1,2,3,4-tetrahydronaphthalen-2-yl)benzenesulfonamide] | A (Increase in comparison with non-treated of >2.5 fold is shown as A) |
| O=S(=O)(NCC1CCc2ccccc2C1)c1ccc(Nc2nccc3ccc(Cl)cc23)cc1 (stereo not shown) [Example 78, 4-((7-Chloroisoquinolin-1-yl)amino)-N-((1,2,3,4-tetrahydronaphthalen-2-yl)methyl)benzenesulfonamide] | A (Increase in comparison with non-treated of >2.5 fold is shown as A) |
